{"source": "patent US8741262B2", "about": "“Targeted radiotherapy” (Katholieke Universiteit Leuven, K.U. Leuven R&D, priority 2007, dated 2014)", "tested_on": "liver radiation-induced fibrosarcoma (RIF-1), RFA-induced necrosis", "assay": "Hypericin distribution in liver RIF-1 tumor in mice after radiofrequency ablation, fluoromacroscopy and fluorescence microscopy", "format": "in vivo", "settings": "5 mg/kg iv 24 h after RFA, 3 d after injection", "description": "The rectangular frame in A and B indicates where micrographs (C and D) were approximately focused. […] Thus, the prolonged retention of hypericin in necrosis matches well the radiation half life of iodine-131 (8 d) or yttrium-90 (64 h), which offers an ideal condition for the present adjuvant anti-cancer radiotherapy with combined use of a small molecule therapeutically labeled NACCs featuring multi-millimeter irradiation penetration (max. range of beta particles in tissue is 2.4 mm for iodine-131 and 12 mm for yttrium-90)."}
{"smiles": "Cc1cc(O)c2c(=O)c3c(O)cc(O)c4c5c(O)cc(O)c6c(=O)c7c(O)cc(C)c8c1c2c(c34)c(c78)c65", "note": "[hypericin]", "values": [{"measurement": "Fluorescence microscopy of necrotic tumor regions", "result": "can still be detected in RFA-induced necrotic tumor regions (NT)"}, {"measurement": "Tissue distribution by UV light fluoromacroscopy", "result": "almost completely cleared from viable liver (VL) and viable tumor (VT), but is retained only in necrotic tumor (NT) and necrotic liver (NL)"}]}
